IC50 data for 24 compounds are collected here from patent US9199984B2, “Inhibition of enzymes” (CHIESI FARMACEUTICI S.p.A., priority 2012, dated 2015).

Structures are written as SMILES. Counter-ions that a name gives are not always drawn.

In the test the target is T1, human neutrophil elastase (HNE) (Homo sapiens, UniProt P08246).
T1 construct: purchased Sigma E8140
T1 sequence (P08246 30-247 limits assumed): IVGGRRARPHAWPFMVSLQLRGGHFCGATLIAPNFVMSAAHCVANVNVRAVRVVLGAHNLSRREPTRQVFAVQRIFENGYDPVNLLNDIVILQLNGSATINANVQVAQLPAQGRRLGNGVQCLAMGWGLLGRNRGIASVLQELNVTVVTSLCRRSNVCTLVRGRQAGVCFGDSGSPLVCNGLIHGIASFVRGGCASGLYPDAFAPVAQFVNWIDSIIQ
As to the kind of experiment: HNE enzyme activity assay. As to conditions: human leukocyte elastase, substrate MeOSuc-Ala-Ala-Pro-Val-AMC 100 μM, 25° C. for 30 minutes, fluorescence; read-out: HNE inhibition. It is filed as biochemical. As for the experimental part:
Compounds of the present invention were tested for potency in a human neutrophil elastase (HNE) enzyme activity assay.
Assays were performed in 96-well plates in a total assay volume of 100 μl. The final concentration of elastase enzyme (human leukocyte elastase, Sigma E8140) was 0.0036 units/well […]. The peptide substrate (MeOSuc-Ala-Ala-Pro-Val-AMC, Calbiochem #324740) was used at a final concentration of 100 μM. The final concentration of DMSO was 1% in the assay buffer (0.05M Tris.HCl, 0.1M NaCl, 0.1M CaCl2, 0.0005% brij-35, pH 7.5). The enzymatic reaction was started by addition of the enzyme and incubated at 25° C. for 30 minutes. After incubation, the reaction was stopped by addition of soybean trypsin inhibitor (Sigma T9003) at a final concentration of 50 μg/well. Fluorescence was measured using a Molecular Devices fluorescence plate reader using 380 nm excitation and 460 nm emission wavelengths.
A dose response to each compound was performed and the effect of compound in each experiment was expressed as a percentage inhibition of the control enzyme fluorescence. Dose response curves were plotted and compound potency (IC50) was determined. Compounds were tested in at least two separate experiments.
As to `Cc1c(-c2ccnn2-c2ccc(C#N)cc2)cn2nc(NC(=O)CN3CCS(=O)(=O)CC3)nc2c1-c1cccc(C(F)(F)F)c1` [Example 21, N-[6-[1-(4-Cyano-phenyl)-1H-pyrazol-5-yl]-7-methyl-8-(3-trifluoromethyl-phenyl)-[1,2,4]triazolo[1,5-a]pyridin-2-yl]-2-(1,1-dioxothiomorpholin-4-yl)-acetamide], the IC50 was below 20 nM.

Take `Cc1c(-c2ccnn2-c2ccc(C#N)cc2)cn2nc(NC(=O)c3ccc(S(C)(=O)=O)cc3)nc2c1-c1cccc(C(F)(F)F)c1` [Example 22, N-[6-[2-(4-Cyano-phenyl)-2H-pyrazol-3-yl]-7-methyl-8-(3-trifluoromethyl-phenyl)-[1,2,4]triazolo[1,5-a]pyridin-2-yl]-4-methanesulfonyl-benzamide]: the IC50 was below 20 nM.

On to `Cc1c(-c2ccnn2-c2ccc(C#N)cc2)cn2nc(NCc3ccc(S(C)(=O)=O)cc3)nc2c1-c1cccc(C(F)(F)F)c1` [Example 23, 4-{5-[2-(4-Methanesulfonyl-benzylamino)-7-methyl-8-(3-trifluoromethyl-phenyl)-[1,2,4]triazolo[1,5-a]pyridin-6-yl]-pyrazol-1-yl}-benzonitrile], for which the IC50 was below 20 nM.

With `Cc1c(-c2ccnn2-c2ccc(C#N)cc2)cn2nc(NCC(=O)N(C)C)nc2c1-c1cccc(C(F)(F)F)c1` [Example 24, 2-[6-[2-(4-Cyano-phenyl)-2H-pyrazol-3-yl]-7-methyl-8-(3-trifluoromethyl-phenyl)-[1,2,4]triazolo[1,5-a]pyridin-2-ylamino]-N,N-dimethyl-acetamide], the IC50 is below 20 nM.

Take `Cc1c(-c2ccnn2-c2ccc(C#N)cc2)cn2nc(NC(=O)C[N+]3(C)CCN(C)CC3)nc2c1-c1cccc(C(F)(F)F)c1` [Example 25, 1-{[6-[2-(4-Cyano-phenyl)-2H-pyrazol-3-yl]-7-methyl-8-(3-trifluoromethyl-phenyl)-[1,2,4]triazolo[1,5-a]pyridin-2-ylcarbamoyl]-methyl}-1,4-dimethyl-piperazin-1-ium chloride]: the IC50 lay in the range of 20 to 100 nM.

Regarding `CC(=O)Nc1nc2c(-c3cccc(C(F)(F)F)c3)c(C)c(-c3ccnn3-c3ccc(C#N)cc3)cn2n1` [Example 26, N-[6-[2-(4-Cyano-phenyl)-2H-pyrazol-3-yl]-7-methyl-8-(3-trifluoromethyl-phenyl)-[1,2,4]triazolo[1,5-a]pyridin-2-yl]-acetamide], the IC50 was below 20 nM.

For `Cc1c(-c2ccnn2-c2ccc(C#N)cc2)cn2nc(NS(C)(=O)=O)nc2c1-c1cccc(C(F)(F)F)c1` [Example 27, N-[6-[2-(4-Cyano-phenyl)-2H-pyrazol-3-yl]-7-methyl-8-(3-trifluoromethyl-phenyl)-[1,2,4]triazolo[1,5-a]pyridin-2-yl]-methanesulfonamide], the IC50 lay in the range of 20 to 100 nM.

In the case of `Cc1c(-c2ccnn2-c2ccc(C#N)cc2)cn2nc(NCCCN(C)C)nc2c1-c1cccc(C(F)(F)F)c1` [Example 28, 4-{5-[2-(3-Dimethylamino-propylamino)-7-methyl-8-(3-trifluoromethyl-phenyl)-[1,2,4]triazolo[1,5-a]pyridin-6-yl]-pyrazol-1-yl}-benzonitrile], the IC50 was below 20 nM.

In the case of `Cc1c(-c2ccnn2-c2ccc(C#N)cc2)cn2nc(NCCN(C)C)nc2c1-c1cccc(C(F)(F)F)c1` [Example 29, 4-{5-[2-(2-Dimethylamino-ethylamino)-7-methyl-8-(3-trifluoromethyl-phenyl)-[1,2,4]triazolo[1,5-a]pyridin-6-yl]-pyrazol-1-yl}-benzonitrile], the IC50 lay within 20 to 100 nM.

For the compound `Cc1c(-c2ccnn2-c2ccc(C#N)cc2)cn2nc(NCCCCN(C)C)nc2c1-c1cccc(C(F)(F)F)c1` [Example 30, 4-{5-[2-(4-Dimethylamino-butylamino)-7-methyl-8-(3-trifluoromethyl-phenyl)-[1,2,4]triazolo[1,5-a]pyridin-6-yl]-pyrazol-1-yl}-benzonitrile], the IC50 was below 20 nM.

In the case of `COc1nc2c(-c3cccc(C(F)(F)F)c3)c(C)c(-c3ccnn3-c3ccc(C#N)cc3)cn2n1` [Example 31, 4-{5-[2-Methoxy-7-methyl-8-(3-trifluoromethyl-phenyl)-[1,2,4]triazolo[1,5-a]pyridin-6-yl]-pyrazol-1-yl}-benzonitrile], the IC50 fell in the range of 100 to 500 nM.

With `Cc1c(-c2ccnn2-c2ccc(C#N)cc2)cn2nc(NCCC[N+](C)(C)C)nc2c1-c1cccc(C(F)(F)F)c1` [Example 32, {3-[6-[2-(4-Cyano-phenyl)-2H-pyrazol-3-yl]-7-methyl-8-(3-trifluoromethyl-phenyl)-[1,2,4]triazolo[1,5-a]pyridin-2-ylamino]-propyl}-trimethyl-ammonium benzenesulfonate], the IC50 is below 20 nM.

On to `Cc1c(-c2ccnn2-c2ccc(C#N)cc2)cn2nc(NCC[N+](C)(C)C)nc2c1-c1cccc(C(F)(F)F)c1` [Example 33, {3-[6-[2-(4-Cyano-phenyl)-2H-pyrazol-3-yl]-7-methyl-8-(3-trifluoromethyl-phenyl)-[1,2,4]triazolo[1,5-a]pyridin-2-ylamino]-ethyl}-trimethyl-ammonium benzenesulfonate], for which the IC50 is below 20 nM.

`Cc1c(-c2ccnn2-c2ccc(C#N)cc2)cn2nc(NCCCC[N+](C)(C)C)nc2c1-c1cccc(C(F)(F)F)c1` [Example 34, {4-[6-[2-(4-Cyano-phenyl)-2H-pyrazol-3-yl]-7-methyl-8-(3-trifluoromethyl-phenyl)-[1,2,4]triazolo[1,5-a]pyridin-2-ylamino]-butyl}-trimethyl-ammonium formate]: the IC50 was below 20 nM.

For the compound `CCOC(=O)Nc1nc2c(-c3cccc(C(F)(F)F)c3)c(C)c(-c3ccnn3-c3ccc(C#N)cc3)cn2n1` [Example 35, [6-[2-(4-Cyano-phenyl)-2H-pyrazol-3-yl]-7-methyl-8-(3-trifluoromethyl-phenyl)-[1,2,4]triazolo[1,5-a]pyridin-2-yl]-carbamic acid ethyl ester], the IC50 is below 20 nM.

Regarding `COCCOC(=O)Nc1nc2c(-c3cccc(C(F)(F)F)c3)c(C)c(-c3ccnn3-c3ccc(C#N)cc3)cn2n1` [Example 36, [6-[2-(4-Cyano-phenyl)-2H-pyrazol-3-yl]-7-methyl-8-(3-trifluoromethyl-phenyl)-[1,2,4]triazolo[1,5-a]pyridin-2-yl]-carbamic acid 2-methoxyethyl ester], the IC50 was below 20 nM.

For `Cc1c(-c2ccnn2-c2ccc(C#N)cc2)cn2nc(NC(=O)OCCC[N+](C)(C)C)nc2c1-c1cccc(C(F)(F)F)c1` [Example 37, {3-[6-[2-(4-Cyano-phenyl)-2H-pyrazol-3-yl]-7-methyl-8-(3-trifluoromethyl-phenyl)-[1,2,4]triazolo[1,5-a]pyridin-2-ylcarbamoyloxy]-propyl}-trimethyl-ammonium formate], the IC50 is below 20 nM.

Turning to `Cc1c(-c2ccnn2-c2ccc(C#N)cc2)cn2nc(NC(=O)NCCC[N+](C)(C)C)nc2c1-c1cccc(C(F)(F)F)c1` [Example 38, (3-{3-[6-[2-(4-Cyano-phenyl)-2H-pyrazol-3-yl]-7-methyl-8-(3-trifluoromethyl-phenyl)-[1,2,4]triazolo[1,5-a]pyridin-2-yl]-ureido}-propyl)-trimethyl-ammonium formate], the IC50 is below 20 nM.

As to `CC(=O)Nc1nc2c(-c3cccc(C(F)(F)F)c3)c(C)c(-c3ncnn3-c3ccc(C#N)cc3)cn2n1` [Example 39, N-[6-[2-(4-Cyano-phenyl)-2H-[1,2,4]triazol-3-yl]-7-methyl-8-(3-trifluoromethyl-phenyl)-[1,2,4]triazolo[1,5-a]pyridin-2-yl]-acetamide], the IC50 is below 20 nM.

Take `Cc1c(-c2ccnn2-c2ccc(C#N)cc2S(C)(=O)=O)cn2nc(N)nc2c1-c1cccc(C(F)(F)F)c1` [Example 40, 4-{5-[2-Amino-7-methyl-8-(3-trifluoromethyl-phenyl)-[1,2,4]triazolo[1,5-a]pyridin-6-yl]pyrazol-1-yl}-3-methanesulfonyl-benzonitrile]: the IC50 is below 20 nM.

With `CC(=O)Nc1nc2c(-c3cccc(C(F)(F)F)c3)c(C)c(-c3ccnn3-c3ccc(C#N)cc3F)cn2n1` [Example 41, N-[6-[2-(4-Cyano-2-fluoro-phenyl)-2H-pyrazol-3-yl]-7-methyl-8-(3-trifluoromethyl-phenyl)-[1,2,4]triazolo[1,5-a]pyridin-2-yl]-acetamide], the IC50 was below 20 nM.

As to `CC(=O)Nc1nc2c(-c3cccc(C(F)(F)F)c3)c(C)c(-c3c(C)cnn3-c3ccc(C#N)cc3)cn2n1` [Example 42, N-[6-[2-(4-Cyano-phenyl)-4-methyl-2H-pyrazol-3-yl]-7-methyl-8-(3-trifluoromethyl-phenyl)-[1,2,4]triazolo[1,5-a]pyridin-2-yl]-acetamide], the IC50 is below 20 nM.

Consider `CC(=O)Nc1nc2c(-c3cccc(C(F)(F)F)c3)c(C)c(-c3ccccc3-c3ccc(C#N)cc3)cn2n1` [Example 43], for which the IC50 is below 20 nM.

As for `CC(=O)Nc1nc2c(-c3cccc(OC(F)(F)F)c3)c(C)c(-c3ccnn3-c3ccc(C#N)cc3)cn2n1` [Example 44, N-[6-[2-(4-Cyano-phenyl)-2H-pyrazol-3-yl]-7-methyl-8-(3-trifluoromethoxy-phenyl)-[1,2,4]triazolo[1,5-a]pyridin-2-yl]-acetamide], the IC50 was 20 to 100 nM.
